The text below walks through data of patent US20230146870A1, “METHOD TO QUANTIFY AFFINITY AND SELECTIVITY OF SMALL MOLECULES FOR PROTEINS IN LIVING CELLS” (Ohio State Innovation Foundation, priority 2021, published 2023).

In one test the target is murine PKCδ-mVenus (Mus musculus, UniProt P28867). Nature of the test: FPCBA saturation binding of probe 1, HEK293 cells expressing PKCδ-mVenus (Example 3).
The target in test [1] is native (untagged) murine PKCα (Mus musculus, UniProt P20444). The test is described as follows: FPCBA saturation binding of probe 1, native PKCα (IRES-mVenus) in HEK293 cells.
The next test addresses murine PKCη-mVenus (Mus musculus, UniProt P23298). Nature of the test: FPCBA saturation binding of probe 1, HEK293 cells expressing PKCη-mVenus (Example 3).
The target in test [2] is T1, native (untagged) murine PKCγ (Mus musculus, UniProt P63318). Nature of the test: FPCBA saturation binding of probe 1, native PKCγ (IRES-mVenus) in HEK293 cells.
A further test addresses T2, murine PKCβI-mVenus (Mus musculus, UniProt P68404).
T2 construct: fused on or other part: mVenus at the C-terminus
The test is described as follows: FPCBA saturation binding, HEK293 cells expressing PKCβI-mVenus (Example 3). From the text:
(§1) To investigate the potential for quantitative analysis of binding to PKCs expressed in cells, we evaluated whether 1-3 could readily achieve equilibrium, which is necessary for measurements of cellular equilibrium dissociation constants (Kd).

In test [3] the test system is HEK293 cells expressing PKCβI-mVenus. The test is described as follows: Kinetics of uptake of probes in HEK293 cells transiently transfected with PKCβI-mVenus. In kind it is cell-based. Conditions: probe 1 μM, room temperature, BIM1 2 μM, 4% FBS. Here is the method: Cells were treated with probes and analyzed by flow cytometry. […] [BIM1]=2 μM. [FBS]=4%.
as §1
The cells were re-suspended in fresh reduced serum media lacking antibiotics (4% FBS) at a cell density of ˜500,000 cells per mL and were added to a 96-well plate (100 μL per well). […] Fluorescent probes were prepared as absorbance-normalized 1 mM DMSO stock solutions and diluted into reduced serum DMEM media lacking antibiotics (4% FBS) to achieve a final concentration of the probe of 1 μM ([…]). [BIM1]=2 μM. After addition of probes, cells were analyzed at room temperature every 5 min as singletons. Living cells with the greatest green fluorescence from expression of mVenus (top 20%, transfected) and the lowest green fluorescence (bottom 20%, non-transfected) were gated to obtain median PB450 values of uptake of the fluorescent probes. For the slower kinetics of uptake of probe 3, cells were analyzed every 20 min in triplicate. These curves were fitted with a one-phase association model (GraphPad Prism 9) to determine t1/2 values.

In a further test the target is T3, mouse PKCβI-mVenus (Mus musculus, UniProt P68404).
T3 construct: eight plasmids encoding full length mouse PKC isozymes fused to; expressed in transfected cells; host or cells: HEK293
The test is described as follows: Apparent cellular Kd by flow cytometry, HEK293 cells overexpressing PKCβI-mVenus (Example 2). In kind it is binding. As to the method: The apparent Kd values of these fluorescent probes were measured using different PKC isozymes (e.g., PKCβI, FIGS. 20A-20D). HEK293 cells were transfected to overexpress PKCβ-mVenus and treated with probes in the presence of verapamil (100 μM) as an inhibitor of efflux.
Background: Flow cytometry measures light scatter and fluorescence of single cells or particles in a stream.

The next test has as its target PKCγ (Homo sapiens, UniProt P05129). Conditions: radiolabeled PDBu at 4° C.; read-out: Biochemical Ki, PKCγ; cited from earlier work.
The target in test [4] is T1, native (untagged) murine PKCγ. The test is described as follows: FPCBA competition with probe 1, native PKCγ in HEK293 cells. The following applies: read-out: Cellular Ki for native PKCγ (95% confidence interval); probe 1 400 nM, BIM1 2 μM, 2 h at 37° C. In kind it is binding. Set-up: For coexpression of full-length unmodified PKC proteins with mVenus as an independent marker; expressed in transfected cells; host or cells: HEK293 (transient, pIRES-mVenus).

Another test deals with PKCζ (Homo sapiens, UniProt Q05513). Conditions: radiolabeled PDBu at 4° C.; cited from earlier work.
The next test deals with PKCθ (Homo sapiens, UniProt Q04759). Conditions: radiolabeled PDBu at 4° C.; read-out: Biochemical Ki, PKCθ; cited from earlier work.
The target in another test is PKCη (Homo sapiens, UniProt P24723). Conditions: radiolabeled PDBu at 4° C.; read-out: Biochemical Ki, PKCη; cited from earlier work.
Test [5] concerns the target native (untagged) murine PKCθ (Mus musculus, UniProt Q02111). The test is described as follows: FPCBA competition with probe 1, native PKCθ in HEK293 cells. In kind it is binding. Details: expressed in transfected cells; host or cells: HEK293 (ATCC CRL-1573), transient transfection with pIRES-mVenus carrying the PKC gene. The following applies: read-out: Cellular Ki for native PKCθ (95% confidence interval); probe 1 400 nM, BIM1 2 μM, 2 h at 37° C.

T2 sequence (P68404 2-621 limits assumed): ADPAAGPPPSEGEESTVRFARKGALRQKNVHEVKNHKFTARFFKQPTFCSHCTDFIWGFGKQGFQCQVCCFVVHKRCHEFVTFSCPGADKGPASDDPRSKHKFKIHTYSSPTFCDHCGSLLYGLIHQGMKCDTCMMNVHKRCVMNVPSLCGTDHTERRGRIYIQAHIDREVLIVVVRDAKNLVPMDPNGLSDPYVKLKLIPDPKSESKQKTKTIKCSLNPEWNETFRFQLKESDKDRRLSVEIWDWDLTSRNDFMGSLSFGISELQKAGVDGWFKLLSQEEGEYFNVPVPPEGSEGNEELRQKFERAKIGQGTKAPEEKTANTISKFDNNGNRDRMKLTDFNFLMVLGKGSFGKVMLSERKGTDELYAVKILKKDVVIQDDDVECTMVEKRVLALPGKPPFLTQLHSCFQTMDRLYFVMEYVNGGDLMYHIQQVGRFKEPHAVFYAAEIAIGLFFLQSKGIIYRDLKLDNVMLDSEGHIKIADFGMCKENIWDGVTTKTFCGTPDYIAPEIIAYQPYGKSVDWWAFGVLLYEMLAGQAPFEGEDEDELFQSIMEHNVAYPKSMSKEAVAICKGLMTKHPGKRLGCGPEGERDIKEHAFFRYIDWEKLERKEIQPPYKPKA
Sequence of native (untagged) murine PKCθ (Q02111 whole entry): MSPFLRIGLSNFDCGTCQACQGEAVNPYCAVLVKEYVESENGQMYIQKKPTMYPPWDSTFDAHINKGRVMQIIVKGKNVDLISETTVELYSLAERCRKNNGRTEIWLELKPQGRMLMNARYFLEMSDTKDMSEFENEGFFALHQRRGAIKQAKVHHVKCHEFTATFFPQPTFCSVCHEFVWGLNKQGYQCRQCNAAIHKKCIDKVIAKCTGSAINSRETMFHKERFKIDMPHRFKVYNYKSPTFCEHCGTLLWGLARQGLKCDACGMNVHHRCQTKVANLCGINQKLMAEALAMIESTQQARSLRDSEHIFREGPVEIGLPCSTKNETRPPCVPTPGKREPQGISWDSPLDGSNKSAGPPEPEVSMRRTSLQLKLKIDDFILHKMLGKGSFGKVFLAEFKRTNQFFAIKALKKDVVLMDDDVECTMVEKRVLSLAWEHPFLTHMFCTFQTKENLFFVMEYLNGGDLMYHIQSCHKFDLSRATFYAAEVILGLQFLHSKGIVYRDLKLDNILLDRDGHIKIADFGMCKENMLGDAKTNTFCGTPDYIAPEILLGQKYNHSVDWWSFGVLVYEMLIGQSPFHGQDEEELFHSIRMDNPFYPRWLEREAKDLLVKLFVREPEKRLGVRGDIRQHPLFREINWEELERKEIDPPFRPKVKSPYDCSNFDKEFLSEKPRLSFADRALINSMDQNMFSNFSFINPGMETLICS
T3 sequence (P68404 whole entry, the tested form may be a part): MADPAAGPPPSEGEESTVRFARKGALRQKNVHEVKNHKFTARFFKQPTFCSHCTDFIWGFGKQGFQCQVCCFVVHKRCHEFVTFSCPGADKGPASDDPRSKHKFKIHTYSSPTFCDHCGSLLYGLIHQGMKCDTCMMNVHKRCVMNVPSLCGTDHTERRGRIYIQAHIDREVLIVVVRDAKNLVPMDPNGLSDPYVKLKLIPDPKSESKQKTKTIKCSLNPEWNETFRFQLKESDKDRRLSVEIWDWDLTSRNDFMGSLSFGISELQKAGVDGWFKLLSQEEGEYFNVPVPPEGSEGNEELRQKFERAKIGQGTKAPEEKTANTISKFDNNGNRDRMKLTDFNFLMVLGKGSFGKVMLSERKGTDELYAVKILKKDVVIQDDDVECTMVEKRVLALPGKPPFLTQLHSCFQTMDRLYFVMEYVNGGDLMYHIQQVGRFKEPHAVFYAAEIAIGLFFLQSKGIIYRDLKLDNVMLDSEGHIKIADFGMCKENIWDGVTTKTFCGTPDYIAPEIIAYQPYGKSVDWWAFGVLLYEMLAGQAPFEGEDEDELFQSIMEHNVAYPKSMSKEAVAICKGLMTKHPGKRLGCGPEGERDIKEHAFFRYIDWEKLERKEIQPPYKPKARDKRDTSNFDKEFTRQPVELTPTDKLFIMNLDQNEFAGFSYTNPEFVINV
Sequence of PKCζ (Q05513 whole entry): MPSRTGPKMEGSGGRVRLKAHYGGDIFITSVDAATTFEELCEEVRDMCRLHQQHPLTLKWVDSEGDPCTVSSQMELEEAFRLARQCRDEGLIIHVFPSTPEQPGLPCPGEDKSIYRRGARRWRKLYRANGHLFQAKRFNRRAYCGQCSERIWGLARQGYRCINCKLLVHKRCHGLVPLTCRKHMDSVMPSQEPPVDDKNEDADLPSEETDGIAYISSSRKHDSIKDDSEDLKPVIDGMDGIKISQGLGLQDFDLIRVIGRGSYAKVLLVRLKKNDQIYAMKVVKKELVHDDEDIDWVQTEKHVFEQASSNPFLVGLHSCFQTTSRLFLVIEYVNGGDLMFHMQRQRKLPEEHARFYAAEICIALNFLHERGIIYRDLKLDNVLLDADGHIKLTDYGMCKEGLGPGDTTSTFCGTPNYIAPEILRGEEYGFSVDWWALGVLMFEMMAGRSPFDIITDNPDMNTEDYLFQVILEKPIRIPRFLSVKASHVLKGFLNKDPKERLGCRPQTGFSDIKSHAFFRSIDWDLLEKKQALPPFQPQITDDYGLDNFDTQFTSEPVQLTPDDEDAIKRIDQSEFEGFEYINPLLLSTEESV
Sequence of murine PKCη-mVenus (P23298 whole entry): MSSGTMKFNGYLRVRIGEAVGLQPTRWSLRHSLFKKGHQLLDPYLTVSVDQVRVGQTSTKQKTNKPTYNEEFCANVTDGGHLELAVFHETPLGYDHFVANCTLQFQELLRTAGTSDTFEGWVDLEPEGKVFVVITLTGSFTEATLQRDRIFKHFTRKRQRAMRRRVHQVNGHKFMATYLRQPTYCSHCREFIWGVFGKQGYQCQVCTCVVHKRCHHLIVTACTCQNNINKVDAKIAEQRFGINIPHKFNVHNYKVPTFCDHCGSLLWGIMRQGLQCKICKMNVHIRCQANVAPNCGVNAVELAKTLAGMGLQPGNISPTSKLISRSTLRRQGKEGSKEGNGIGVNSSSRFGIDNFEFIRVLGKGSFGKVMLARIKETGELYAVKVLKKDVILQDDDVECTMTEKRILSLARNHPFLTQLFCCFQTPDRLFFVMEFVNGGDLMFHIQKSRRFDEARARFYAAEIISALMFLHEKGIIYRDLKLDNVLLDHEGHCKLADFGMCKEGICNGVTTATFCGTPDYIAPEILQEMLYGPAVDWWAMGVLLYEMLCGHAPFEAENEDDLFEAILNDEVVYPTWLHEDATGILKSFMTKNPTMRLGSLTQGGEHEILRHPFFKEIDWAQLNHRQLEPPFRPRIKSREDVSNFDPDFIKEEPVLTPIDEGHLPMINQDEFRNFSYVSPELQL

`CCCCCCN(CCCCCCCCCCCCNC(=O)c1cc2cc(F)c(O)c(F)c2oc1=O)C(=O)O[C@@]12[C@H](O)[C@@H](C)[C@@]3(O)[C@@H](C=C(CO)C[C@]4(O)C(=O)C(C)=C[C@@H]34)[C@@H]1C2(C)C` [probe 1, (1aR,1bS,4aR,7aS,7bS,8R,9R,9aS)-4a,7b,9-trihydroxy-3-(hydroxymethyl)-1,1,6,8-tetramethyl-5-oxo-1,1a,1b,4,4a,5,7a,7b,8,9-decahydro-9aH-cyclopropa[3,4]benzo[1,2-e]azulen-9a-yl (12-(6,8-difluoro-7-hydroxy-2-oxo-2H-chromene-3-carboxamido)dodecyl)(hexyl)carbamate]: the Kd on murine PKCδ-mVenus was determined as 657 ± 254 nM; in test [1], 63 nM; at murine PKCη-mVenus it was 250 ± 36 nM; in test [2], 211 ± 92 nM; on murine PKCβI-mVenus (BIM1 2 μM, 2 h at 37° C., 4% FBS, read-out: Cellular Kd for probe, PKCβI-mVenus), 200 nM; at mouse PKCβI-mVenus, 190 nM. The “median blue fluorescence of cells expressing high levels of PKCβI-mVenus vs non-transfected cells” value at murine PKCβI-mVenus (1 at 1 μM, 2 h, BIM1 2 μM) is recorded as “ca. 4 fold”. Also, at murine PKCβI-mVenus (with BIM1, 1.25 μM probe), the “signal-to-background (S/B)” value was found to be 2.9. The “improvement of apparent cellular affinity for PKCβI by BIM1” value on murine PKCβI-mVenus (with vs without BIM1) is around 2 fold. Also, in test [3], the “half-time (t1/2) of cellular uptake in transfected cells” value worked out at 4 min.
For orientation: Ki means a measure of affinity in units of concentration, obtained from inhibition or displacement. In the case of `CCC/C=C/C=C/C(=O)O[C@H]1/C(=C/C(=O)OC)C[C@H]2C[C@H]([C@@H](C)O)OC(=O)C[C@H](O)C[C@@H]3C[C@H](OC(C)=O)C(C)(C)[C@](O)(C[C@@H]4C/C(=C/C(=O)OC)C[C@H](/C=C/C(C)(C)[C@]1(O)O2)O4)O3` [bryostatin 1], the Ki is 2.2 nM on PKCγ; 8 nM in test [4]; 1.5 nM on PKCθ; 2.2 nM on PKCη; 8 nM in test [5]. For the same compound, on PKCζ, the “Biochemical Ki, PKCζ” value is reported as “No binding”.
